# Key:
# [1] = test system: THP1 cells; experiment: Cell-based TR-FRET cGAMP assay in THP1 cells; parameters: species or system human; settings: Table 6, PMA-differentiated THP1 cells, 90-bp dsDNA transfection 24 h
# [2] = test system: THP1-Dual cells; experiment: Cell-based Lucia luciferase assay in THP1-Dual cells; settings: Homo sapiens, Table 4, 100-bp dsDNA transfection 24 h, secreted luciferase reporting interferon-induced gene expression
# [3] = biological target: h-cGAS (Homo sapiens (Human), UniProt Q8N884); experiment: RapidFire mass spectroscopy assay (cGAMP formation); format: biochemical
# [4] = biological target: Human cGAS (Homo sapiens (Human), UniProt Q8N884); experiment: cGAS enzyme assay using TR-FRET; format: biochemical; settings: Table 5; human cGAS 5 nmol/L, 90 bp dsDNA 100 nmol/L, TR-FRET cGAMP detection; read-out: hcGAS enzyme assay
# [5] = Table 2, full-length h-cGAS 100 nM, dsDNA 25 nM, ATP and GTP 100 μM, 7 h RT
# [6] = Table 3, compounds from related application PCT/US2019/016673, same RapidFire assay
# Chain of Human cGAS (Q8N884 whole entry): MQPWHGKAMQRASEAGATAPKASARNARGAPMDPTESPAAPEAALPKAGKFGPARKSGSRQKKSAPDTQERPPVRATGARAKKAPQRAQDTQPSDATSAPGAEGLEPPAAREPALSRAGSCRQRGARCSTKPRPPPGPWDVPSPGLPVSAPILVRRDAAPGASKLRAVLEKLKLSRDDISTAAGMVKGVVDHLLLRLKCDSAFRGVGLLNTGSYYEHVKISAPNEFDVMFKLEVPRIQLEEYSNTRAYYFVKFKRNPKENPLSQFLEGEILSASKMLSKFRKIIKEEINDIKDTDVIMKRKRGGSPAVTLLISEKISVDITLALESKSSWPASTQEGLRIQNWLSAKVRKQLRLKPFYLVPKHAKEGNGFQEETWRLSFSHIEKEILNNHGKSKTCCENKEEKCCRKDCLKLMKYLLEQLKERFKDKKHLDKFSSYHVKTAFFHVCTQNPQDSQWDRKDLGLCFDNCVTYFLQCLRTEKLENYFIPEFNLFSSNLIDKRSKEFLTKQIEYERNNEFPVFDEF
# Chain of h-cGAS (Q8N884 whole entry): as above
Compound,IC50 [4] [µM],other results
"1-[7,8-Dichloro-10-(1-methyl-1H-pyrazol-3-yl)-3,4-dihydropyrazino[1,2-b]indazol-2(1H)-yl]-2-hydroxyethan-1-one [Example 67]",–,IC50 [1]: 0.14 µM
"COc1nc2c3c([nH]c2c(Cl)c1Cl)CCN(C(=O)CO)C3 [Example 1, 1-(3,4-Dichloro-2-methoxy-5,6,7,9-tetrahydro-8H-pyrrolo[3,2-b:4,5-c′]dipyridin-8-yl)-2-hydroxyethan-1-one]",0.19,"IC50 [2]: 10.7 µM; IC50 [3, 5]: 0.0616 µM; IC50 ([1]; Homo sapiens, THP-1): 2.5 µM"
"COCC(=O)N1CCc2[nH]c3cc(Cl)ncc3c2C1 [Example 2, 1-(7-Chloro-1,3,4,5-tetrahydro-2H-pyrrolo[3,2-c:4,5-c′]dipyridin-2-yl)-2-methoxyethan-1-one]",> 30,"IC50 [3, 5]: 2.41 µM"
"COCC(=O)N1CCn2nc3c(Cl)c(Cl)ccc3c2C1 [Example 3, 1-(7,8-Dichloro-3,4-dihydropyrazino[1,2-b]indazol-2(1H)-yl)-2-methoxyethan-1-one]",–,"IC50 [3, 5]: 2.47 µM"
"O=C(CO)N1CCn2nc3c(Cl)c(Cl)ccc3c2C1 [Example 4, 1-(7,8-Dichloro-3,4-dihydropyrazino[1,2-b]indazol-2(1H)-yl)-2-hydroxyethan-1-one]",21,"IC50 [3, 5]: 1.46 µM"
"COCC(=O)N1CCc2nn3c(Cl)c(Cl)ccc3c2C1 [Example 5, 1-(7,8-Dichloro-3,4-dihydropyrazolo[1,5-a:4,3-c′]dipyridin-2(1H)-yl)-2-methoxyethan-1-one]",> 30,"IC50 [3, 5]: 21.8 µM"
"O=C(CO)N1CCc2nn3c(Cl)c(Cl)ccc3c2C1 [Example 6, 1-(7,8-Dichloro-3,4-dihydropyrazolo[1,5-a:4,3-c′]dipyridin-2(1H)-yl)-2-hydroxyethan-1-one]",–,"IC50 [3, 5]: 20.8 µM"
"Cn1ccc(-c2nc(Cl)c(Cl)c3[nH]c4c(c23)CN(C(=O)CO)CC4)n1 [Example 25, 1-[6,7-Dichloro-9-(1-methyl-1H-pyrazol-3-yl)-1,3,4,5-tetrahydro-2H-pyrrolo[3,2-c:4,5-c′]dipyridin-2-yl]-2-hydroxyethan-1-one]",0.095,–
"COCC(=O)N1CCc2[nH]c3c(Cl)c(Cl)nc(-c4ccn(C)n4)c3c2C1 [Example 30, 1-[6,7-Dichloro-9-(1-methyl-1H-pyrazol-3-yl)-1,3,4,5-tetrahydro-2H-pyrrolo[3,2-c:4,5-c′]dipyridin-2-yl]-2-methoxyethan-1-one]",0.21,–
"Cn1ccc(-c2nc(Cl)c(Cl)c3c2c2c(n3C)CCN(C(=O)CO)C2)n1 [Example 34, 1-[6,7-Dichloro-5-methyl-9-(1-methyl-1H-pyrazol-3-yl)-1,3,4,5-tetrahydro-2H-pyrrolo[3,2-c:4,5-c′]dipyridin-2-yl]-2-hydroxyethan-1-one]",0.15,–
"Cn1ccc(-c2cc(Cl)c(F)c3nn4c(c23)CN(C(=O)CO)CC4)n1 [Example 64, 1-[8-Chloro-7-fluoro-10-(1-methyl-1H-pyrazol-3-yl)-3,4-dihydropyrazino[1,2-b]indazol-2(1H)-yl]-2-hydroxyethan-1-one]",0.18,–
"COCC(=O)N1CCn2nc3c(Cl)c(Cl)cc(-c4ccn(C)n4)c3c2C1 [Example 68, 1-[7,8-Dichloro-10-(1-methyl-1H-pyrazol-3-yl)-3,4-dihydropyrazino[1,2-b]indazol-2(1H)-yl]-2-methoxyethan-1-one]",0.24,"IC50 ([1]; Homo sapiens, THP-1): 0.33 µM"
"Cn1ccc(-c2ccc(Cl)c3nn4c(c23)CN(C(=O)CO)CC4)n1 [Example 69, 1-[7-Chloro-10-(1-methyl-1H-pyrazol-3-yl)-3,4-dihydropyrazino[1,2-b]indazol-2(1H)-yl]-2-hydroxyethan-1-one]",0.28,–
"Cc1nnc(-c2cc(Cl)c(F)c3nn4c(c23)CN(C(=O)CO)CC4)o1 [Example 70, 1-[8-Chloro-7-fluoro-10-(5-methyl-1,3,4-oxadiazol-2-yl)-3,4-dihydropyrazino[1,2-b]indazol-2(1H)-yl]-2-hydroxyethan-1-one]",7.5,–
"Cc1noc(-c2cc(Cl)c(F)c3nn4c(c23)CN(C(=O)CO)CC4)n1 [Example 71, 1-[8-Chloro-7-fluoro-10-(3-methyl-1,2,4-oxadiazol-5-yl)-3,4-dihydropyrazino[1,2-b]indazol-2(1H)-yl]-2-hydroxyethan-1-one]",1.4,–
"Cn1ccc(-c2ncc(Cl)c3[nH]c4c(c23)CN(C(=O)CO)CC4)n1 [Example 72, 1-[6-Chloro-9-(1-methyl-1H-pyrazol-3-yl)-1,3,4,5-tetrahydro-2H-pyrrolo[3,2-c:4,5-c′]dipyridin-2-yl]-2-hydroxyethan-1-one]",0.25,–

Compound,IC50 [4] [µM],other results
"COCC(=O)N1CCc2[nH]c3c(Cl)cnc(-c4ccn(C)n4)c3c2C1 [Example 73, 1-[6-Chloro-9-(1-methyl-1H-pyrazol-3-yl)-1,3,4,5-tetrahydro-2H-pyrrolo[3,2-c:4,5-c′]dipyridin-2-yl]-2-methoxyethan-1-one]",0.87,–
"Cn1ccc(-c2ncc(Cl)c3c2c2c(n3C)CCN(C(=O)CO)C2)n1 [Example 74, 1-[6-Chloro-5-methyl-9-(1-methyl-1H-pyrazol-3-yl)-1,3,4,5-tetrahydro-2H-pyrrolo[3,2-c:4,5-c′]dipyridin-2-yl]-2-hydroxyethan-1-one]",0.29,–
"COc1nc2c3c([nH]c2c(F)c1Cl)CCN(C(=O)CO)C3 [Example 75, 1-(3-Chloro-4-fluoro-2-methoxy-5,6,7,9-tetrahydro-8H-pyrrolo[3,2-b:4,5-c′]dipyridin-8-yl)-2-hydroxyethan-1-one]",0.55,–
"COc1nc2c3c([nH]c2c(Cl)c1Cl)C(C)(C)CN(C(=O)CO)C3 [Example 76, 1-(3,4-Dichloro-2-methoxy-6,6-dimethyl-5,6,7,9-tetrahydro-8H-pyrrolo[3,2-b:4,5-c′]dipyridin-8-yl)-2-hydroxyethan-1-one]",0.85,–
"CCOc1nc2c3c([nH]c2c(Cl)c1Cl)CCN(C(=O)CO)C3 [Example 77, 1-(3,4-Dichloro-2-ethoxy-5,6,7,9-tetrahydro-8H-pyrrolo[3,2-b:4,5-c′]dipyridin-8-yl)-2-hydroxyethan-1-one]",3,–
"CCOc1nc2c3c([nH]c2c(F)c1Cl)CCN(C(=O)CO)C3 [Example 78, 1-(3-Chloro-2-ethoxy-4-fluoro-5,6,7,9-tetrahydro-8H-pyrrolo[3,2-b:4,5-c′]dipyridin-8-yl)-2-hydroxyethan-1-one]",3.7,–
"O=C(CO)N1CCc2[nH]c3c(Cl)c(Cl)c(OCC4CC4)nc3c2C1 [Example 79, 1-[3,4-Dichloro-2-(cyclopropylmethoxy)-5,6,7,9-tetrahydro-8H-pyrrolo[3,2-b:4,5-c′]dipyridin-8-yl]-2-hydroxyethan-1-one]",5.9,–
"O=C(CO)N1CCc2[nH]c3c(F)c(Cl)c(OCC4CC4)nc3c2C1 [Example 80, 1-[3-Chloro-2-(cyclopropylmethoxy)-4-fluoro-5,6,7,9-tetrahydro-8H-pyrrolo[3,2-b:4,5-c′]dipyridin-8-yl]-2-hydroxyethan-1-one]",5,–
"O=C(CO)N1CCc2[nH]c3c(Cl)c(Cl)c(OC(F)F)nc3c2C1 [Example 81, 1-[3,4-Dichloro-2-(difluoromethoxy)-5,6,7,9-tetrahydro-8H-pyrrolo[3,2-b:4,5-c′]dipyridin-8-yl]-2-hydroxyethan-1-one]",2.4,–
"O=C(CO)N1CCc2[nH]c3c(F)c(Cl)c(OC(F)F)nc3c2C1 [Example 82, 1-[3-Chloro-2-(difluoromethoxy)-4-fluoro-5,6,7,9-tetrahydro-8H-pyrrolo[3,2-b:4,5-c′]dipyridin-8-yl]-2-hydroxyethan-1-one]",15,–
"N#Cc1ccc2c3c([nH]c2c1C#N)CCN(C(=O)CO)C3 [TDI-006932, reference compound]",–,"IC50 [3, 6]: > 25 µM"
"O=C(CO)N1CCc2[nH]c3c(Cl)c(Cl)cc(-c4cn[nH]c4)c3c2C1 [TDI-007445, reference compound]",–,"IC50 [3, 6]: 0.0275 µM"
"O=C(CO)N1CCc2[nH]c3c(Cl)c(Cl)cc(-c4ccc(NC(=O)C(F)(F)F)cc4)c3c2C1 [TDI-008458, reference compound]",–,"IC50 [3, 6]: 0.629 µM"
"O=C(CO)N1CCc2[nH]c3c(F)c(Cl)cc(N4CCS(=O)(=O)C4)c3c2C1 [TDI-008867, reference compound]",–,"IC50 [2]: > 10 µM; IC50 [3, 6]: 6.93 µM"
"Cc1cc(-c2ncn(C)n2)c2c3c([nH]c2c1Cl)CCN(C(=O)CO)C3 [TDI-008989, reference compound]",–,"IC50 [2]: 6.71 µM; IC50 [3, 6]: 0.0459 µM"
